In patent US20210292330A1, “PYRROLIDINE-FUSED HETEROCYCLES” (Erasca, Inc., priority 2020, published 2021):

Target: T1, KRAS 4B G12C protein (Homo sapiens, UniProt P01116, G12C)
T1 construct: This protein contained 188 amino acids in total, including an N-terminal 6-Histidine tag; made in house; host or cells: E. coli BL21
Assay: In vitro covalent adduct formation (CAF) assay by LC-MS
Assay type: binding
Settings: compound 10 μM, protein 5 μM, 22° C., percentage of protein bound by the compound
Protocol: In vitro covalent adduct formation assay: Covalent adduct formation (CAF) reactions between Cys12 of the KRAS 4B G12C protein and some of the compounds of Table 1 were measured in vitro using liquid chromatography-mass spectrometry (LC-MS).
Recombinant Human KRAS 4B protein containing the G12C mutation was used in compound screening experiments. This protein contained 188 amino acids in total, including an N-terminal 6-Histidine tag, followed by a Tobacco Etch Virus (TEV) tag, followed by residues 1-169 of the native KRAS 4B sequence. The exact mass of the protein was 21,310 Da as determined by mass spectrometry. The full amino acid sequence is shown below:
The recombinant protein was expressed in E. coli BL21 cells and purified using affinity chromatography via a Ni-NTA column. […] Pure KRAS 4B G12C protein was diluted to a concentration of 5 μM in Tris Buffered Saline, pH 7.4. The compounds were dissolved in DMSO and added to the diluted protein to make a 10 μM concentration. The total DMSO concentration in the reaction was 4%. The reaction was mixed by pipetting and incubated at 22° C. for one hour. Aliquots of the reaction were taken over time and diluted 2:1 in 0.1% formic acid. The intact mass of the protein samples was measured by LC-MS using a QExactive+ mass spectrometer (Thermo Scientific). An amount of 500 ng total protein was injected onto a C8 reverse phase column, eluted with a seven-minute gradient of 30%-90% acetonitrile/0.1% formic acid, and analyzed for intact mass by the mass spectrometer. Adducts identified were confirmed to be within 1 Dalton of the expected mass, and the relative ratios of free:adduct protein were used to quantify the percentage of protein bound by the compound. CAF reactions were run in duplicate, with a typical variability of ±5%.

Row | Structure (SMILES) | CAF (10 minutes/60 minutes) at 10 micromolar: 10 minutes | CAF (10 minutes/60 minutes) at 10 micromolar: 60 minutes
1 | C=CC(=O)N1CCN(c2nc(OC[C@@H]3CCCN3C)nc3c2CN(S(=O)(=O)c2cccc4ccccc24)C3)C[C@@H]1CC#N [1-238] | 73% | 95%
2 | C=CC(=O)N1CCN(c2nc(SC)nc3c2CN(C2CCc4ccccc42)C3)C[C@@H]1CC#N (some centres unmarked) [1-136] | 16% | 56%
3 | C=C(F)C(=O)N1CCN(c2nc(OC[C@@H]3CCCN3C)nc3c2CN(C2CCc4cccc(Cl)c42)C3)C[C@@H]1CC#N (some centres unmarked) [1-153] | 46% | 78%
4 | C=CC(=O)N1CCN(c2nc(OC[C@@H]3CCCN3C)nc3c2CN(Cc2cccc(Cl)c2Cl)C3)C[C@@H]1CC#N [1-81] | 96% | 98%
5 | C=CC(=O)N1CCN(c2nc(OC[C@@H]3CCCN3C)nc3c2CN(S(=O)(=O)c2ccccc2C)C3)C[C@@H]1CC#N [1-237] | 27% | 80%
6 | C=CC(=O)N1CCN(c2nc(OC[C@@H]3CCCN3C)nc3c2CN(Cc2cc(F)ccc2C)C3)C[C@@H]1CC#N [1-11] | 87% | 98%
7 | C=CC(=O)N1CCN(c2nc(OCC3CC3)nc3c2CN(C2CCc4ccccc42)C3)C[C@@H]1CC#N (some centres unmarked) [1-142] | 7% | 36%
8 | C=CC(=O)N1CCN(c2nc(OC[C@@H]3CCCN3C)nc3c2CN(Cc2cc(O)c(Cl)cc2C)C3)C[C@@H]1CC#N [1-331] | 32% | 76%
9 | C=CC(=O)N1CCN(c2nc(OC[C@@H]3CCCN3C)nc3c2CN(C2CCc4ccccc42)C3)C[C@@H]1Cn1nccn1 (some centres unmarked) [1-215] | 0% | 7%
10 | C=CC(=O)N1CCN(c2nc(OC[C@@H]3CCCN3C)nc3c2CN(Cc2c(Cl)ccc4nc[nH]c24)C3)C[C@@H]1CC#N [1-229] | 94% | 95%
11 | C=C(F)C(=O)N1CCN(c2nc(OC[C@@H]3CCCN3C)nc3c2CN(C2CCc4ccccc42)C3)C[C@@H]1CC#N (some centres unmarked) [1-139] | 0% | 5%
12 | C=CC(=O)N1CCN(c2nc(OC[C@@H]3CCCN3C)nc3c2CN(Cc2cc(F)cc(F)c2)C3)[C@@H](C)C1 [1-13] | 0%/ 0% | 0%/ 0%
13 | C#CC1CN(c2nc(OC[C@@H]3CCCN3C)nc3c2CN(C2CCc4ccccc42)C3)CCN1C(=O)C=C (some centres unmarked) [1-121] | 0% | 4%
14 | C=CC(=O)N1CCN(c2nc(OC[C@@H]3CCCN3C)nc3c2CN(Cc2cc(O)c(C)cc2Cl)C3)C[C@@H]1CC#N [1-323] | 72% | 93%
15 | C=CC(=O)N1CCN(c2nc(OC[C@@H]3CCCN3CC)nc3c2CN(C2CCc4ccccc42)C3)C[C@@H]1CC#N (some centres unmarked) [1-175] | 60% | 82%
16 | C=CC(=O)N1CCN(c2nc(OC[C@@H]3CCCN3C)nc3c2CN(Cc2cc(O)c(Cl)cc2Cl)C3)C[C@@H]1CC#N [1-330] | 52% | 86%
17 | C=CC(=O)N1CCN(c2nc(OCCN3CCOCC3)nc3c2CN(Cc2cc(OC)ccc2C)C3)[C@@H](C)C1 [1-110] | 0%/ 0% | 0%/ 0%
18 | C=CC(=O)N1CCN(c2nc(OCCN3CCOCC3)nc3c2CN(Cc2cc(O)ccc2Cl)C3)C[C@@H]1CC#N [1-134] | 98%/ 98% | 98%/ 98%
19 | C=C(F)C(=O)N1CCN(c2nc(OC[C@@H]3CCCN3C)nc3c2CN(Cc2cc(O)c(Cl)cc2C)C3)C[C@@H]1CC#N [1-326, 2-[(2S)-4-{6-[(4-chloro-5-hydroxy-2-methylphenyl)methyl]-2-{[(2S)-1-methylpyrrolidin-2-yl]methoxy}-5H,7H-pyrrolo[3,4-d]pyrimidin-4-yl}-1-(2-fluoroprop-2-enoyl)piperazin-2-yl]acetonitrile] | 0% | 2%
20 | C=CC(=O)N1CCN(c2nc(OC)nc3c2CN(Cc2cc(OC)ccc2Cl)C3)C[C@@H]1CC#N [1-74] | 2% | 21%
21 | C=CC(=O)N1CCN(c2nc(OC[C@@H]3CCCN3C)nc3c2CN(Cc2cc(C)ccc2C)C3)C[C@@H]1CC#N [1-70] | 77% | 94%
22 | C=CC(=O)N1CCN(c2nc(OC[C@@H]3CCCN3C)nc3c2CN(Cc2cccc4cccc(C)c24)C3)C[C@@H]1CC#N [1-16] | 40% | 86%
23 | C=CC(=O)N1CCN(c2nc(OC[C@@H]3CCCN3C)nc3c2CN(Cc2c(F)cccc2Cl)C3)C[C@@H]1CC#N [1-112] | 98% | 99%
24 | C=CC(=O)N1CCN(c2nc(OC[C@@H]3CCCN3C)nc3c2CN(Cc2c(C)cccc2OC(F)F)C3)C[C@@H]1CC#N [1-83] | 97% | 100%
25 | C=CC(=O)N1CCN(c2nc(OC[C@@H]3CCCN3C)nc3c2CN(Cc2c(Cl)ccc(O)c2C)C3)C[C@@H]1CC#N [1-312] | 95%/ 95% | 95%/ 95%
26 | C=CC(=O)N1CCN(c2nc(OC[C@@H]3CCCN3CC(F)(F)F)nc3c2CN(C2CCc4ccccc42)C3)C[C@@H]1CC#N (some centres unmarked) [1-141] | 51% | 71%
27 | C=CC(=O)N1CCN(c2nc(OC[C@@H]3CCCN3C)nc3c2CN(Cc2cccc4c2CCO4)C3)C[C@@H]1CC#N [1-143] | 48% | 70%
28 | C=CC(=O)N1CCN(c2nc(OC[C@@H]3CCCN3C)nc3c2CN(C2CCc4ccccc42)C3)C[C@@H]1CCC#N (some centres unmarked) [1-212] | 0% | 5%
